{"source": "patent US7091025B2", "about": "“Malathion carboxylesterase” (priority 1995, dated 2006)", "key": {"[1]": {"biological_target": "Lucilia cuprina LcαE7 (esterase E3) gene product, malathion resistant allele, Trp to Leu at position 251 (Lucilia cuprina, UniProt Q25252, W251L)", "assay": "chlorfenvinphos hydrolysis, expressed malathion resistant LcαE7 product", "type": "biochemical", "conditions": "75 μM CVP", "procedure": "The malathion resistant Lcα7 full-length cDNA was cloned into the baculovirus transfer vector, Bacpac 6 (Clonetech) 3′ of the polyhedrin promoter. Transfections were conducted using a lipofection method with DOTAP (Boehringer Mannheim) as per King and Possee (The Baculovirus Expression System: A Laboratory Guide, Chapman & Hall, London, 1992). One μg of DNA of each of the resulting constructs together with 200 ng of Bacpac 6 baculovirus DNA (Clonetech), linearised by digestion with the restriction enzyme BSU 36I (Promega), was incubated in a solution of HBS (hepes buffered saline) containing 15% DOTAP (Boehringer Mannheim) in a polystyrene container at room temperature for 10 minutes. The solution was then used to transfect a single well of a six well tissue culture plate pre-seeded 2 hrs previously with 10^4 Sf9 (Spodoptera frugiperda) cells in 1.5 mls Grace's medium (King and Possee, The Baculovirus Expression System: A Laboratory Guide, Chapman & Hall, London, 1992). After 12 hours, the medium was replaced with 3 mls of Grace's medium containing 10% fetal calf serum. Construct plus DOTAP, linearised virus plus DOTAP and DOTAP only controls were conducted in parallel with transfections. The transfections were harvested 4–5 days after infection and the cells isolated by centrifugation at 500 g for 5 minutes. […]"}, "[2]": {"tested_on": "Lucilia cuprina LcαE7 (esterase E3) gene product, OP-susceptible allele (LS2)", "conditions": "described in PCT/AU 95/00016; cited from earlier work"}, "[3]": {"tested_on": "MCE encoded by the malathion resistant allele of LcαE7", "assay": "Sensitivity of MCE activity to TPP (titration/preincubation of cell extract)", "type": "biochemical, L. cuprina"}, "[4]": {"biological_target": "T1, Lucilia cuprina LcαE7 (esterase E3) gene product, malathion resistant allele (strain RM-8), Trp to Leu at position 251 (Lucilia cuprina, UniProt Q25252, W251L)", "assay": "sensitivity of MCE activity to TPP, expressed malathion resistant LcαE7 product", "type": "biochemical", "conditions": "TPP 8×10^−8M, preincubation 15, 30 or 45 minutes"}, "[5]": {"tested_on": "malathion resistant strains of M. domestica, C. putoria and L. cuprina", "conditions": "literature, cited from earlier work"}, "[6]": {"tested_on": "MCE activity associated with malathion resistance in M. domestica, C. putoria and L. cuprina", "conditions": "literature; cited from earlier work"}, "[7]": {"biological_target": "Lucilia cuprina LcαE7 (esterase E3) gene product, malathion susceptible allele (strain LS2; clone Lc743), Trp at position 251 (Lucilia cuprina, UniProt Q25252)", "sequence (Q25252 entry or part of it)": "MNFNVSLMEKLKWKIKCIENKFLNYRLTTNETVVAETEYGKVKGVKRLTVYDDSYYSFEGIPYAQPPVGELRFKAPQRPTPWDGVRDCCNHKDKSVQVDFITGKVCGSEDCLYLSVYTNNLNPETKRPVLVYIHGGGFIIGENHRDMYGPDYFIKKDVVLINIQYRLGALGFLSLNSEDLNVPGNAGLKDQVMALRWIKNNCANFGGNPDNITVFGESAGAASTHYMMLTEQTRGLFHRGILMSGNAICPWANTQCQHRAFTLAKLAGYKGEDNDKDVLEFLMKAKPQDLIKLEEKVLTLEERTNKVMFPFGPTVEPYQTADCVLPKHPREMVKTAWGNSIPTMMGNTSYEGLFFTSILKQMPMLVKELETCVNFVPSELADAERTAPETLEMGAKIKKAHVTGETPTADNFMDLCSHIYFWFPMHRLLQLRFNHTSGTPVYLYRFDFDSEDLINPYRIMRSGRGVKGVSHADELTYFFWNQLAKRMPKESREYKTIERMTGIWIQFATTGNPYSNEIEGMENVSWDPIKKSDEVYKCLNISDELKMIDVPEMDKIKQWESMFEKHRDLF", "assay": "malathion hydrolysis (MCE activity), expressed malathion susceptible LcαE7 product", "type": "biochemical", "conditions": "malathion 2.5-100 μM, 25° C., pH 7.0"}, "[8]": {"biological_target": "T1, Lucilia cuprina LcαE7 (esterase E3) gene product, malathion resistant allele (strain RM-8), Trp to Leu at position 251", "assay": "malathion hydrolysis (MCE activity), expressed malathion resistant LcαE7 product", "type": "biochemical", "conditions": "malathion 2.5-100 μM, 25° C., pH 7.0"}, "[9]": {"tested_on": "malathion carboxylesterase (MCE) purified from malathion resistant strains of L. cuprina", "conditions": "cited from earlier work"}, "[10]": {"tested_on": "malathion carboxylesterase (MCE) purified from malathion resistant strains of L. cuprina", "conditions": "purified MCE (Whyard and Walker 1994); cited from earlier work"}, "[11]": {"tested_on": "malathion carboxylesterase (MCE) purified from malathion resistant strains of L. cuprina", "conditions": "purified MCE (Whyard and Walker 1994); cited from earlier work", "remark": "listed apart in the source"}, "CC(=O)Oc1cccc2ccccc12": {"tested_on": "CC(=O)Oc1cccc2ccccc12", "assay": "α-naphthyl acetate hydrolysis, expressed malathion resistant LcαE7 product", "type": "biochemical, Lucilia cuprina", "conditions": "other: α-NA 6-200 μM, 25° C., pH 8.0", "procedure": "(§1) The malathion resistant Lcα7 full-length cDNA was cloned into the baculovirus transfer vector, Bacpac 6 (Clonetech) 3′ of the polyhedrin promoter. Transfections were conducted using a lipofection method with DOTAP (Boehringer Mannheim) as per King and Possee (The Baculovirus Expression System: A Laboratory Guide, Chapman & Hall, London, 1992). One μg of DNA of each of the resulting constructs together with 200 ng of Bacpac 6 baculovirus DNA (Clonetech), linearised by digestion with the restriction enzyme BSU 36I (Promega), was incubated in a solution of HBS (hepes buffered saline) containing 15% DOTAP (Boehringer Mannheim) in a polystyrene container at room temperature for 10 minutes. […]\n(§2) The initial rates of reactions between cell extracts containing the expressed products of the malathion resistant and susceptible LcαE7 alleles and α-naphthyl acetate (α-NA) were determined at 25° C. using a recording spectrophotometer and the method of Mastrapaolo and Yourno (Analytical Biochemistry 115: 188, 1981). 6–200 μM α-NA dissolved in 10 μl of 2-methoxyethanol was added to 0.1 M Tris-HCl pH 8.0 (980 μl) in a quartz cuvette. α-Naphthyl acetate is slowly hydrolysed in water so a background rate was recorded before starting the enzymic reaction by the addition of 10 μl of diluted cell extract. […]\n(§3) Km and Vmax were calculated for both enzymes. […]"}, "CCCC(=O)Oc1cccc2ccccc12": {"tested_on": "CCCC(=O)Oc1cccc2ccccc12", "assay": "α-naphthyl butyrate hydrolysis, expressed malathion resistant LcαE7 product", "type": "biochemical, Lucilia cuprina", "conditions": "other: α-NB 6-200 μM, 25° C., pH 8.0", "procedure": "as §1, §2, §3"}, "[12]": {"conditions": "purified MCE (Whyard et al. 1994)"}}, "note": "Read-outs that look alike come from different tables or passages of the source.", "data": [{"compound": "CCOP(=O)(OCC)OC(=CCl)c1ccc(Cl)cc1Cl", "note": "[CVP, chlorfenvinphos]", "values": [{"measurement": "turnover, fold less than that of the diazinon resistant (RM2-6) gene product", "setting": "[1]", "value": "approximately 50 fold"}, {"measurement": "turnover (hydrolytic activity)", "setting": "[1]; 30° C., pH 7.0", "value": "about 1.2 hour^−1"}, {"measurement": "CVP / diethyl OP hydrolytic activity", "setting": "[2]", "value": "undetectable"}]}, {"compound": "O=P(Oc1ccccc1)(Oc1ccccc1)Oc1ccccc1", "note": "[TPP, triphenylphosphate]", "values": [{"measurement": "turnover of TPP by MCE", "setting": "[3]; TPP 8×10^−8M preincubated 15, 30 or 45 minutes with cell extract", "value": "not being turned over"}, {"measurement": "concentration giving stoichiometric inhibition of MCE activity", "setting": "[3]; expressed product of malathion resistant LcαE7 allele, substrate malathion", "value": "below 10^−7 M"}, {"measurement": "residual MCE activity at different preincubation times / completeness of inhibition by TPP", "setting": "[4]", "value": "no significant difference between the residual MCE activity at each of the preincubation times"}, {"measurement": "turnover of TPP by MCE", "setting": "[4]", "value": "TPP was not being turned over by MCE"}, {"measurement": "synergism of malathion", "setting": "[5]; listed as triphenylphosphate", "value": "best synergists"}, {"measurement": "synergism of malathion", "setting": "[5]", "value": "potent synergism of malathion by TPP"}, {"measurement": "sensitivity of MCE activity to inhibition by TPP", "setting": "[6]", "value": "High sensitivity to inhibition by TPP"}]}, {"compound": "CCOC(=O)CC(SP(=S)(OC)OC)C(=O)OCC", "note": "(centres unmarked) [malathion, S-1,2-bis(ethoxycarbonyl)ethyl O,O-dimethyl phosphorodithioate]", "values": [{"measurement": "Kcat", "setting": "[7]", "value": "1.17 ± 0.183", "unit": "s⁻¹"}, {"measurement": "Km", "setting": "[7]", "value": "200 ± 30", "unit": "µM"}, {"measurement": "Kcat", "setting": "[8]", "value": "0.717 ± 0.017", "unit": "s⁻¹"}, {"measurement": "Km", "setting": "[8]", "value": "21 ± 1", "unit": "µM"}, {"measurement": "Kcat", "setting": "[9]; purified MCE (Whyard and Walker 1994)", "value": "46±2", "unit": "per min"}, {"measurement": "Km", "setting": "[9]; [12]", "value": "11 ± 0.4", "unit": "µM"}, {"measurement": "Vmax", "setting": "[9]; [12]", "value": "775±28", "unit": "nmol malathion/min/mg"}, {"measurement": "kcat (turnover number)", "setting": "[9]; [12]", "value": 0.767, "unit": "s⁻¹"}]}, {"compound": "CC(=O)Oc1cccc2ccccc12", "note": "[α-naphthyl acetate]", "values": [{"measurement": "Kcat", "setting": "[10]", "value": 2063, "unit": "per min"}, {"measurement": "Km", "setting": "[10]", "value": "167 ± 14", "unit": "µM"}]}, {"compound": "CCCC(=O)Oc1cccc2ccccc12", "note": "[α-naphthyl butyrate]", "values": [{"measurement": "Kcat", "setting": "[11]", "value": 3700, "unit": "per min"}, {"measurement": "Km", "setting": "[11]", "value": "39 ± 4", "unit": "µM"}]}, {"compound": "Lucilia cuprina LcαE7 (esterase E3) gene product, malathion resistant allele (strain RM-8), Trp to Leu at position 251 (Lucilia cuprina; W251L)", "values": [{"measurement": "Km", "setting": "CC(=O)Oc1cccc2ccccc12", "value": "150 ± 50", "unit": "µM"}, {"measurement": "kcat", "setting": "CC(=O)Oc1cccc2ccccc12", "value": "37.8 ± 0.5", "unit": "s⁻¹"}, {"measurement": "Km", "setting": "CCCC(=O)Oc1cccc2ccccc12", "value": "29 ± 4", "unit": "µM"}, {"measurement": "kcat", "setting": "CCCC(=O)Oc1cccc2ccccc12", "value": "150 ± 6.67", "unit": "s⁻¹"}]}]}
